Reference: patent publication US10314851B2, “Metakaryocidal treatments” (Massachusetts Institute of Technology, priority 2014, dated 2019)
Where two headings read alike, the source gives them in different places.

System: HT-29 cells
From the text: Applicants next sought means to test nominated drugs (also referred to herein as candidate agents) using human cell cultures, particularly cell cultures derived from human tumors in which they discovered metakaryotic cells driving net growth and differentiation of such cultures by symmetric and asymmetric amitotic divisions.
The metakaryotic and pre-metakaryotic cells of cell lines derived from human tumors are capable of unlimited division when plated as single cells on plastic or glass surfaces. However, most cells in such cell lines are eukaryotic cells capable of limited cell growth which growth cannot give rise to immortal colonies or populations of cells. This quality permits the line to be used in quantitative assays of cell killing important for distinguishing among agents and regimens that kill metakaryotic cells in preference to eukaryotic cells and vice versa.
Single cells betray different fates. […] Applicants interpret these colonies and derived immortal populations to be the descendants of single metakaryotic or pre-metakaryotic stem cells.
Colonies of limited size between 1 and 2^11 cells are interpreted to be the products of growth of transition cell tiers three through eleven.
In this reproducible behavior the human tumor cell lines offered a means to test agents for metakaryocidal activity: metakaryocidal agents and regimens would reduce or eliminate the appearance of large colonies that could be propagated by serial trypsinized transfer. […] An example of this kind of assay is illustrated in FIGS. 1, 2 and 3.
In particular drugs evaluated were reported to overcome “multidrug resistance” giving special priority to drugs that suppressed “multidrug resistance” (MDR).
Shown in FIGS. 1-3 are images of quantitative trials of different regimens (initial concentration, duration of exposure) of metformin in clonal assays using HT-29 cells. […] FIG. 1 is a photograph illustrating the experimental design for testing metformin as a metakaryocide in vitro.
FIG. 2 depicts a table of the recorded colony counts on each of the flasks of the first image.
The Y-axis is the number of colonies on each test flask enumerated in FIG. 2 while the X-axis is the product of metformin concentration (micromolar) times the duration of the HT-29 cells to the drug (weeks).

Row | SMILES | concentration above which surviving large colonies are not immortal and do not contain metakaryotic stem cells (HT-29, FIG. 1, five weeks) [µM] | concentration x duration of exposure at which elimination of metakaryotic cell-containing immortal colonies is reached (HT-29, FIG. 3) [micromolar-weeks] | concentration x duration of exposure below which killing of mortal colonies is not observed (HT-29, FIG. 3) | survival fraction of the metformin-sensitive population (metakaryotic cells) (HT-29, at ~200 μM weeks) | total large colony numbers reduced to a level less than in untreated control flasks (HT-29, colonies five weeks after seeding, treated from day one for one, two or five weeks, concentration x duration treatments shown with green counts in FIG. 2) | concentration at which surviving large colonies are not immortal and do not contain metakaryotic stem cells (HT-29, five weeks exposure) [µM] | concentration above which surviving large colonies are not immortal and do not contain metakaryotic stem cells (HT-29, one week exposure) [µM] | expected survival of metakaryotic cells (extrapolated from FIG. 3, treatment of ~400 μM weeks) | metakaryocidal effect (survival vs. concentration x duration function) (tests of some sixteen drugs, compared with metformin)
1 | CN(C)C(=N)N=C(N)N [metformin] | > 100 | ~200 | about 2000 micromolar weeks | 10^−2 | about 10% | 800 | > 1600 | 10^−4 | –
2 | COC(=O)[C@H]1[C@H]2C[C@@H]3c4[nH]c5cc(OC)ccc5c4CCN3C[C@H]2C[C@@H](OC(=O)c2cc(OC)c(OC)c(OC)c2)[C@@H]1OC [reserpine] | – | – | – | – | – | – | – | – | no detectable effect as a metakaryocide
